Literature values, collected in patent US20210113495A1, “METHOD OF TREATING EPILEPSY OR EPILEPTIC ENCEPHALOPATHY WITH FENFLURAMINE IN PATIENTS WITHOUT PULMONARY HYPERTENSION” (ZOGENIX INTERNATIONAL LIMITED, priority 2018, published 2021).

Tests used:
[1] = tested on: pulmonary arterial hypertension patients; details: PAH patients who had started treatment with bosentan
[2] = tested on: children with refractory epilepsy; details: dose of 0.5 to 1 mg/kg/day
[3] = tested on: child suffering pattern sensitivity-induced seizures; details: one child, seizures resistant to anticonvulsive treatment
[4] = tested on: self-induced photosensitive seizures; details: four cases
patients with PH [5] = tested on: patients with PH
patients with PH [6] = details: short-term infusion
[7] = initial right heart catheterization, resting, 15 women who had used fenfluramine, mean (SD)

SMILES: COc1ccccc1Oc1c(NS(=O)(=O)c2ccc(C(C)(C)C)cc2)nc(-c2ncccn2)nc1OCCO [bosentan]
- patients alive at 2 years [1]: 89%

SMILES: CCNC(C)Cc1cccc(C(F)(F)F)c1 (racemic) [fenfluramine, (RS)—N-ethyl-1-[3-(trifluoromethyl)phenyl]propan-2-amine]
- number of seizures experienced by the patients [2]: reduction in the number of seizures
- effect on self-induced seizures [3]: successfully terminated these self-induced seizures
- response of self-induced photosensitive seizures [4]: responded to treatment with fenfluramine
- users with close temporal relation between fenfluramine use and development of exertional dyspnoea (patients with PH [5]; 10 of 15 women with PH who had used fenfluramine): 67%
- overall survival, fenfluramine users vs controls (patients with PH [5]; PH patients, transplant recipients excluded): no significant difference in overall survival
- pulmonary artery pressure (PAP) (patients with PH [5]; [7]): 57 (9) mm Hg
- pulmonary vascular resistance (PVR) (patients with PH [5]; [7]): 29 (10) U/m^2

SMILES: CCCCC[C@H](O)/C=C/[C@@H]1[C@H]2C/C(=C/CCCC(=O)O)O[C@H]2C[C@H]1O [epoprostenol]
- mean fall in PVR compared with control values (patients with PH [6]; 10 responding patients, mean (SD)): 24 (15%)
- vasodilator response (patients with PH [6]; 15 women with PH who had used fenfluramine): significant vasodilator response in 10 patients
